Tested on: 565726-208-R1-J5-PDC complex spheroids, growth inhibition
Assay: Anticancer human tumor 565726-208-R1-J5-PDC patient-derived pancreatic adenocarcinoma cell line growth inhibition [RAS]
Settings: for viability, T/C: stronger effect = lower value
In short: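 Agents were tested in combination matrices in half-log decrements from a top concentration at or near clinical Cmax (10 microM if undetermined). Targets were multi-cell spheroids of tumour lines plus HUVEC and MSC stromal cells.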
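Further: spheroids exposed to compounds for seven days before readout.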
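Wherever viability, T/C is given: 100% = DMSO vehicle control viability.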

## CC(C)n1nc(-c2ccc3oc(N)nc3c2)c2c(N)ncnc21 + CCn1c(-c2cc(N3CCN(C)CC3)cnc2C(C)OC)c2c3cc(ccc31)-c1csc(n1)CC(NC(=O)C1CC1C)C(=O)N1CCCC(N1)C(=O)OCC(C)(C)C2
Curve of first compound, second compound 0.000949 µM
  IC50: 1.9 nM
Curve of first compound, second compound 0.003 µM
  IC50: < 0.316 nM
Curve of first compound, second compound 0.00949 µM
  IC50: < 0.316 nM
Curve of first compound, second compound 0.03 µM
  IC50: < 0.316 nM
Curve of first compound, second compound 0.0949 µM
  IC50: < 0.316 nM
Curve of first compound, second compound 0.3 µM
  IC50: < 0.316 nM
Second compound 0.000949 µM, first compound 0.000316 µM
  viability, T/C: 65.3%
Second compound 0.000949 µM, first compound 0.001 µM
  viability, T/C: 48.7%
Second compound 0.000949 µM, first compound 0.00316 µM
  viability, T/C: 51.4%
Second compound 0.000949 µM, first compound 0.01 µM
  viability, T/C: 36.5%
Second compound 0.000949 µM, first compound 0.0316 µM
  viability, T/C: 23.8%
Second compound 0.000949 µM, first compound 0.1 µM
  viability, T/C: 17.7%
Second compound 0.003 µM, first compound 0.000316 µM
  viability, T/C: 48.6%
Second compound 0.003 µM, first compound 0.001 µM
  viability, T/C: 45.6%
Second compound 0.003 µM, first compound 0.00316 µM
  viability, T/C: 38.6%
Second compound 0.003 µM, first compound 0.01 µM
  viability, T/C: 28.4%
Second compound 0.003 µM, first compound 0.0316 µM
  viability, T/C: 20.7%
Second compound 0.003 µM, first compound 0.1 µM
  viability, T/C: 14.1%
Second compound 0.00949 µM, first compound 0.000316 µM
  viability, T/C: 40.4%
Second compound 0.00949 µM, first compound 0.001 µM
  viability, T/C: 35.5%
Second compound 0.00949 µM, first compound 0.00316 µM
  viability, T/C: 30.6%
Second compound 0.00949 µM, first compound 0.01 µM
  viability, T/C: 22.7%
Second compound 0.00949 µM, first compound 0.0316 µM
  viability, T/C: 15.7%
Second compound 0.00949 µM, first compound 0.1 µM
  viability, T/C: 10.6%
Second compound 0.03 µM, first compound 0.000316 µM
  viability, T/C: 30%
Second compound 0.03 µM, first compound 0.001 µM
  viability, T/C: 31.1%
Second compound 0.03 µM, first compound 0.00316 µM
  viability, T/C: 26%
Second compound 0.03 µM, first compound 0.01 µM
  viability, T/C: 17.5%
Second compound 0.03 µM, first compound 0.0316 µM
  viability, T/C: 13.2%
Second compound 0.03 µM, first compound 0.1 µM
  viability, T/C: 8.25%
Second compound 0.0949 µM, first compound 0.000316 µM
  viability, T/C: 26.7%
Second compound 0.0949 µM, first compound 0.001 µM
  viability, T/C: 25.9%
Second compound 0.0949 µM, first compound 0.00316 µM
  viability, T/C: 20.3%
Second compound 0.0949 µM, first compound 0.01 µM
  viability, T/C: 14.6%
Second compound 0.0949 µM, first compound 0.0316 µM
  viability, T/C: 10.4%
Second compound 0.0949 µM, first compound 0.1 µM
  viability, T/C: 6.63%
Second compound 0.3 µM, first compound 0.000316 µM
  viability, T/C: 22.7%
Second compound 0.3 µM, first compound 0.001 µM
  viability, T/C: 21.3%
Second compound 0.3 µM, first compound 0.00316 µM
  viability, T/C: 18.9%
Second compound 0.3 µM, first compound 0.01 µM
  viability, T/C: 15.1%
Second compound 0.3 µM, first compound 0.0316 µM
  viability, T/C: 11.1%
Second compound 0.3 µM, first compound 0.1 µM
  viability, T/C: 6.78%

## CC1(O)CCCC1n1c(=O)c(C(F)F)cc2cnc(NC3CCN(S(C)(=O)=O)CC3)nc21 (centres undefined)
Compound 0.0316 µM
  viability, T/C: 86.8% [middle of 4 runs]
Compound 0.1 µM
  viability, T/C: 71.2% [middle of 4 runs]
Compound 1 µM
  viability, T/C: 71.2% [middle of 4 runs]
Compound 10 µM
  viability, T/C: 5.9% [middle of 4 runs]
Curve of compound
  IC50: 4.5 µM [middle of 4 runs]

## CC1(C)CCC(Nc2ncc(C(F)(F)F)c(-c3c[nH]c4c(P(C)(C)=O)c(C#N)ccc34)n2)CN1 (centres undefined) + C=CC(=O)N1CCN(c2nc(OCC3CCCN3C)nc3c(F)c(-c4nc(N)cc(C)c4C(F)(F)F)c(Cl)cc23)C(C)C1
Curve of first compound, second compound 0.00316 µM
  IC50: 6.76 nM
Curve of first compound, second compound 0.01 µM
  IC50: 7.74 nM
Curve of first compound, second compound 0.0316 µM
  IC50: 5.42 nM
Curve of first compound, second compound 0.1 µM
  IC50: 5.76 nM
Curve of first compound, second compound 0.316 µM
  IC50: 6.16 nM
Curve of first compound, second compound 1 µM
  IC50: 6.81 nM
Second compound 0.00316 µM, first compound 0.000949 µM
  viability, T/C: 133%
Second compound 0.00316 µM, first compound 0.003 µM
  viability, T/C: 73.7%
Second compound 0.00316 µM, first compound 0.00949 µM
  viability, T/C: 40.1%
Second compound 0.00316 µM, first compound 0.03 µM
  viability, T/C: 40.4%
Second compound 0.00316 µM, first compound 0.0949 µM
  viability, T/C: 41.2%
Second compound 0.00316 µM, first compound 0.3 µM
  viability, T/C: 37.3%
Second compound 0.01 µM, first compound 0.000949 µM
  viability, T/C: 136%
Second compound 0.01 µM, first compound 0.003 µM
  viability, T/C: 74.6%
Second compound 0.01 µM, first compound 0.00949 µM
  viability, T/C: 46%
Second compound 0.01 µM, first compound 0.03 µM
  viability, T/C: 34.2%
Second compound 0.01 µM, first compound 0.0949 µM
  viability, T/C: 41.3%
Second compound 0.01 µM, first compound 0.3 µM
  viability, T/C: 39.9%
Second compound 0.0316 µM, first compound 0.000949 µM
  viability, T/C: 127%
Second compound 0.0316 µM, first compound 0.003 µM
  viability, T/C: 65.8%
Second compound 0.0316 µM, first compound 0.00949 µM
  viability, T/C: 34.2%
Second compound 0.0316 µM, first compound 0.03 µM
  viability, T/C: 28.4%
Second compound 0.0316 µM, first compound 0.0949 µM
  viability, T/C: 39.7%
Second compound 0.0316 µM, first compound 0.3 µM
  viability, T/C: 37.7%
Second compound 0.1 µM, first compound 0.000949 µM
  viability, T/C: 143%
Second compound 0.1 µM, first compound 0.003 µM
  viability, T/C: 67.7%
Second compound 0.1 µM, first compound 0.00949 µM
  viability, T/C: 33.7%
Second compound 0.1 µM, first compound 0.03 µM
  viability, T/C: 36.8%
Second compound 0.1 µM, first compound 0.0949 µM
  viability, T/C: 39%
Second compound 0.1 µM, first compound 0.3 µM
  viability, T/C: 36.5%
Second compound 0.316 µM, first compound 0.000949 µM
  viability, T/C: 130%
Second compound 0.316 µM, first compound 0.003 µM
  viability, T/C: 67.3%
Second compound 0.316 µM, first compound 0.00949 µM
  viability, T/C: 40.2%
Second compound 0.316 µM, first compound 0.03 µM
  viability, T/C: 32.5%
Second compound 0.316 µM, first compound 0.0949 µM
  viability, T/C: 38%
Second compound 0.316 µM, first compound 0.3 µM
  viability, T/C: 34.6%
Second compound 1 µM, first compound 0.000949 µM
  viability, T/C: 140%
Second compound 1 µM, first compound 0.003 µM
  viability, T/C: 70.2%
Second compound 1 µM, first compound 0.00949 µM
  viability, T/C: 41.7%
Second compound 1 µM, first compound 0.03 µM
  viability, T/C: 38.9%
Second compound 1 µM, first compound 0.0949 µM
  viability, T/C: 36.5%
Second compound 1 µM, first compound 0.3 µM
  viability, T/C: 38.9%
